Results published in the supplement of paper PMC11451515.

System: SEM cells
Assay: cell viability relative to DMSO control; higher = less cytotoxic
Conditions: 48 h
Method in brief: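 Library compounds in DMSO were pin-dosed into 1536-well plates (5 μl) holding NOMO1 or SEM (500 cells/well) or P12-Ichikawa (1000 cells/well) leukemia cells, across an 11-point threefold series of 47 μM to 0.79 nM. Each cell line had been adapted for at least four passages in each medium. CellTiter-Glo One luminescence was read after 48 h at 37°C. Viability is the per-plate percentage relative to DMSO wells, with cell-free wells as background.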

[1] = HPLM + 10% dialyzed FBS, 0.000781 µM
[2] = HPLM + 10% dialyzed FBS, 0.00234 µM
[3] = HPLM + 10% dialyzed FBS, 0.00702 µM
[4] = HPLM + 10% dialyzed FBS, 0.0211 µM
[5] = HPLM + 10% dialyzed FBS, 0.0632 µM
[6] = HPLM + 10% dialyzed FBS, 0.19 µM
[7] = HPLM + 10% dialyzed FBS, 0.569 µM
[8] = HPLM + 10% dialyzed FBS, 1.71 µM
[9] = HPLM + 10% dialyzed FBS, 5.12 µM
[10] = HPLM + 10% dialyzed FBS, 15.4 µM
[11] = HPLM + 10% dialyzed FBS, 46.1 µM
[12] = RPMI 5 mM glucose + 10% FBS, 0.000781 µM
[13] = RPMI 5 mM glucose + 10% FBS, 0.00234 µM
[14] = RPMI 5 mM glucose + 10% FBS, 0.00702 µM
[15] = RPMI 5 mM glucose + 10% FBS, 0.0211 µM
[16] = RPMI 5 mM glucose + 10% FBS, 0.0632 µM
[17] = RPMI 5 mM glucose + 10% FBS, 0.19 µM
[18] = RPMI 5 mM glucose + 10% FBS, 0.569 µM
[19] = RPMI 5 mM glucose + 10% FBS, 1.71 µM
[20] = RPMI 5 mM glucose + 10% FBS, 5.12 µM
[21] = RPMI 5 mM glucose + 10% FBS, 15.4 µM
[22] = RPMI 5 mM glucose + 10% FBS, 46.1 µM
[23] = RPMI 5 mM glucose + 10% dialyzed FBS, 0.000781 µM
[24] = RPMI 5 mM glucose + 10% dialyzed FBS, 0.00234 µM
[25] = RPMI 5 mM glucose + 10% dialyzed FBS, 0.00702 µM
[26] = RPMI 5 mM glucose + 10% dialyzed FBS, 0.0211 µM
[27] = RPMI 5 mM glucose + 10% dialyzed FBS, 0.0632 µM
[28] = RPMI 5 mM glucose + 10% dialyzed FBS, 0.19 µM
[29] = RPMI 5 mM glucose + 10% dialyzed FBS, 0.569 µM
[30] = RPMI 5 mM glucose + 10% dialyzed FBS, 1.71 µM
[31] = RPMI 5 mM glucose + 10% dialyzed FBS, 5.12 µM
[32] = RPMI 5 mM glucose + 10% dialyzed FBS, 15.4 µM
[33] = RPMI 5 mM glucose + 10% dialyzed FBS, 46.1 µM

Compound	cell viability [1] [%]	cell viability [2] [%]	cell viability [3] [%]	cell viability [4] [%]	cell viability [5] [%]	cell viability [6] [%]	cell viability [7] [%]	cell viability [8] [%]	cell viability [9] [%]	cell viability [10] [%]	cell viability [11] [%]	cell viability [12] [%]	cell viability [13] [%]	cell viability [14] [%]	cell viability [15] [%]	cell viability [16] [%]	cell viability [17] [%]	cell viability [18] [%]	cell viability [19] [%]	cell viability [20] [%]	cell viability [21] [%]	cell viability [22] [%]	cell viability [23] [%]	cell viability [24] [%]	cell viability [25] [%]	cell viability [26] [%]	cell viability [27] [%]	cell viability [28] [%]	cell viability [29] [%]	cell viability [30] [%]	cell viability [31] [%]	cell viability [32] [%]	cell viability [33] [%]
O=C(Nc1ncc(-c2cc(C(F)F)nn2-c2c(Cl)cccc2Cl)s1)C1CC1	101	113	102	128	121	124	118	47	20.5	21.9	8.41	112	106	123	131	127	137	124	31.5	14.8	14.8	4.67	115	103	99.9	137	127	123	130	37.2	17.8	22	5.55
Cn1cc(/C=C2\C(=O)Nc3cccnc32)c2ccccc21	90.8	104	113	117	125	121	115	111	112	44.8	30	92.5	92.5	122	114	99.3	105	108	115	98.4	31.8	21.9	105	106	124	101	122	119	114	119	91.7	30.2	28
Cc1[nH]c(/C=C2\C(=O)Nc3ccccc32)c(C)c1CCC(=O)O	55	85.6	76.3	81.6	68.9	84	6.38	32.1	26.4	26.5	18.7	71.9	97.7	108	82.6	82.4	86.9	6.07	37.1	39.1	30.9	18.3	47.4	82	80.5	76.1	75.5	83.3	5.75	26.5	27.6	22	15.4
Cc1cc(Nc2nc(N[C@@H](C)c3ccc(F)cc3)c(C#N)cc2F)n[nH]1	120	106	114	110	101	95	99.1	88.7	23.4	15	7.41	112	104	111	112	107	112	103	93.4	24.1	13.3	6.68	104	100	106	105	93.9	101	100	76.9	23.9	16.7	6.42
C[C@]12CC[C@@H]3c4ccc(O)cc4CC[C@H]3[C@@H]1C[C@@H](O)[C@@H]2O	105	116	108	119	113	121	113	116	113	105	91.3	86.9	83.6	97.3	95.6	91.5	89.3	91.8	79.7	90.9	82.6	66.4	127	120	114	128	129	115	126	106	112	116	92.4
CN1\C(=C(\O)C2=C(C=CC=C2)[S+]1([O-])=O)C(=O)NC3=CC=CC=N3	92.2	81.9	96.9	75	91.9	114	7.98	67.2	112	63.3	64.9	90	95	97.8	107	106	117	6.64	54.8	93.2	54.9	56.6	98.4	86.6	112	107	123	109	8.39	51.8	96.6	59.8	74.5
Oc1cccc(-c2nc(N3CCOCC3)c3oc4ncccc4c3n2)c1	108	96.3	102	99.1	92.6	80.7	54.8	54.5	61.5	57.3	5.23	102	102	120	106	93.3	77.9	58.4	60.9	8.23	6.63	4.34	–	–	–	–	–	–	–	–	–	–	–
COc1ncnc(N[S+](=O)([O-])c2ccc(N)cc2)c1OC	33.3	74	64.9	77.8	96.9	75.1	77.2	46.8	11.4	5.63	6.09	46	102	82.5	96.4	101	88.3	59.3	44	6.03	4.36	5.06	39.2	96.9	79.2	114	118	92.6	86.1	50.4	17.9	8.47	8.64
CC[C@H](C)C(=O)O[C@H]1C[C@H](O)\C=C2\C=C/[C@H](C)[C@H](CC[C@@H](O)C[C@@H](O)CC(O)=O)[C@@H]12	118	114	116	111	125	129	121	126	103	106	92.9	98.7	110	121	124	113	126	107	118	95.8	108	102	123	109	121	125	129	109	121	110	119	120	86.2
CC1=C(CC(=O)O)c2cc(F)ccc2/C1=C\c1ccc([S+](C)[O-])cc1 (centres undefined)	111	121	130	125	127	125	126	109	108	104	76.7	96.6	86.7	98.5	95.8	90.3	106	83.6	90.7	79.6	71.9	63.4	126	118	119	118	130	115	105	107	95.9	99.8	74.3
